Data on one substance can be found in PMC4608580, “Synthesis and Evaluation of Biological Activity of Antimicrobial – Pro-Proliferative Peptide Conjugates” (PLoS ONE, 2015).

The assay deals with HaCaT keratinocytes. Briefly: Cell migration assay (in vitro scratch test). Format: cell-based, human. As to conditions: 25 μg/mL, 24 h, serum-free DMEM, Mitomycin C 5 μg/mL, vs. control without peptide, three independent experiments. On the procedure:
Fibroblasts and keratinocytes were seeded (5x10^5 cells/well) in 6-well plates. When desired monolayer confluence was reached, cells were starved for 24 hours in serum-free DMEM. The monolayer was scratched then with 200μL-pipette tip. The floating cells and cell debris were removed by double washing in PBS, further replaced with a fresh serum-free medium. Wounded monolayers were incubated for the next 24 h in the presence of tested peptides used at concentration of 25 μg/mL and 5 μg/mL of Mitomycin C (Sigma Aldrich) to prevent proliferation. At the end of the experiment medium was removed and the cells were fixed with 3.7% PFA for 5 min, stained for the next 30 min with 0.05% crystal violet solution, washed several times with distilled water and the plates were left inverted for a couple of minutes to drain. The wounded areas were then photographed by means of Zeiss Observer D1 microscope equipped with camera AxioCam and analyzed with AxioVision software (Carl Zeiss, Germany). Migration activity of the cells treated with the tested peptides were expressed as the percentage of the wounded area with respect to the control probe (cell cultures without any of the peptide), assumed as 100%.
An in vitro scratch test was performed to investigate the effect of the analyzed compounds on keratinocytes and fibroblasts migration. Evaluation was based on the efficiency of the invasion of the monolayer cells to the prewounded area within 24 h after stimulation with the appropriate compound added at concetration of 25μg/mL.
Fig 2 Effect of the peptides on HaCaT keratinocytes and fibroblasts cell migration in the in vitro scratch test. HaCaT cells and fibroblasts were grown in 6-well plates until the 100% confluence was reached, then cells were starved for the next 12 hours in DMEM without 10% FCS and scratched once vertically with a 200μL pipette tip. After being washed two times with sterile PBS, a fresh portion of DMEM medium was added and cells were treated with the tested peptides applied at their optimal doses (25 μg/mL). Migration was analyzed after 24 hours by means of Zeiss Observer D1 microscope, wounding areas were analyzed with AxioVision software and expressed as the percentage of the wound width in comparison to the control sample (cells incubated in DMEM without FCS). Control+ FCS corresponds to the sample with cells incubated in the medium containing 10% FCS and was treated as the additional positive control. Data represent the mean ± SD of three independent experiments. *P < 0.05, **P < 0.01, ***P < 0.001 vs. control.

With “YAGFLR-PEG-IKKILSKIKKLL-NH2 [DAL-PEG-DK5, conjugate of dalargin and DK5 joined by PEG-linker]”, the “Effect on keratinocyte migration (scratch test), in words” value was “neutral or slightly stimulative”.
